Melting point data for 34 compounds are collected here from patent publication US6875761B2 (Eisai Co., Ltd., priority 1997, dated 2005).

Molecules are shown by their SMILES. Where a name gives a salt, the structure may show the parent alone.

Regarding `CCN1CCN(c2nc(-c3ccc(CNS(=O)(=O)CC)c(Cl)c3)cc3ccccc23)CC1` (as salt: hydrochloride) [Example 91, 3-(3-Chloro-4-ethylsulfonylaminomethylphenyl)-1-(4-ethylpiperazin-1-yl)isoquinoline Hydrochloride], the melting point was 278 to 280 °C (dec.). With `CCC(=O)Nc1ccc(-c2cc3ccccc3c(N3CCN(CC)CC3)n2)cc1` (as salt: hydrochloride) [Example 69, 3-(4-Ethylcarbonylaminophenyl)-1-(4-Ethylpiperazin-1-Yl)Isoquinoline Hydrochloride] the figure was 176 to 178 °C; with `CCN1CCN(c2nc(-c3ccc(C4CCCO4)cc3)cc3ccccc23)CC1` (stereo not shown) (as salt: hydrochloride) [Example 396, 1-(4-Ethylpiperazin-1-yl)-3-[4-(Tetrahydrofuran-2-yl)Phenyl]Isoquinoline Dihydrochloride], 129 to 130 °C; with `CN1CCN(c2nc(-c3ccc(OCC(C)(C)O)cc3)cc3sccc23)CC1` (as salt: hydrochloride) [Example 288, 6-[4-(2-methyl-2-hydroxypropoxy)phenyl]-4-(4-methylpiperazin-1-yl)thieno[3,2-c]pyridine hydrochloride], 135 to 138 °C. Compound `OCCOc1ccc(-c2cc3ccsc3c(N3CCN(CCO)CC3)n2)cc1` (as salt: oxalate) [Example 275, 5-[4-(2-hydroxyethoxy)phenyl]-7-[4-(2-hydroxyethyl)piperazin-1-yl]thieno[3,2-c]pyridine oxalate] displayed a melting point of 105 to 107 °C. Next, `CCN1CCN(c2nc(-c3ccc(O[C@@H](C)CO)cc3)cc3ccccc23)CC1` (as salt: hydrochloride) [Example 404, 1-(4-ethylpiperazin-1-yl)-3-[4-(2-hydroxy-1-methylethoxy)phenyl]isoquinoline Dihydrochloride]: 128 to 129 °C. With `CCNS(=O)(=O)c1ccc(-c2cc3ccccc3c(N3CCN(CCO)CC3)n2)cc1` (as salt: oxalate) the figure was 172 to 174 °C; with `CCN1CCN(c2nc(-c3ccc(S(=O)(=O)NC4CC4)cc3)cc3ccccc23)CC1` (as salt: hydrochloride) [Example 363, 1-(4-ethylpiperazin-1-yl)-3-[4-(N-cyclopropylsulfamoyl)phenyl]isoquinoline dihydrochloride], 158 to 159.5 °C. With `CCN1CCN(c2nc(-c3ccc(C4=CCOCC4)nc3)cc3ccccc23)CC1` (as salt: oxalate) [Example 155, 3-[2-(5,6-dihydro-2H-pyran-4-yl)pyridin-5-yl]-1-(4-ethylpiperazin-1-yl)isoquinoline oxalate] the figure was 156 to 159 °C; with `CCN1CCN(c2nc(-c3cccc(OCCO)c3)cc3ccsc23)CC1` (as salt: hydrochloride) [Example 258, 7-(1-ethylpiperazin-4-yl)-5-[3-(2-hydroxyethoxy)phenyl]thieno[2,3-c]pyridine Dihydrochloride], 132 to 135 °C; with `CCNC(=O)Cc1ccc(-c2cc3ccccc3c(N3CCN(CC)CC3)n2)cc1` (as salt: hydrochloride) [Example 87, 3-(4-Ethylaminocarbonylmethylphenyl)-1-(4-ethylpiperazin-1-yl)isoquinoline Hydrochloride], 143 to 145 °C. For `CCN1CCN(c2nc(-c3ccc(OCC#N)cc3)cc3ccccc23)CC1` (as salt: hydrochloride) [Example 51, 3-(4-Cyanomethoxyphenyl)-1-(4-Ethylpiperazin-1-Yl)Isoquinoline Hydrochloride], the melting point is 123 to 125 °C. Next, `CCN1CCN(c2nc(-c3ccc(OCC(C)(C)O)cc3)cc3cccnc23)CC1` (as salt: hydrochloride) [Example 250, 8-(1-ethylpiperazin-4-yl)-6-[4-(2-hydroxy-2-methylpropoxy)phenyl]-1,7-naphthyridine Dihydrochloride]: 127 to 132 °C; `CCCC(=O)Nc1ccc(-c2cc3ccccc3c(N3CCN(CC)CC3)n2)cn1` (as salt: hydrochloride) [Example 128, 3-(2-propylcarbonylaminopyridin-5-yl)-1-(4-ethylpiperazin-1-yl)isoquinoline hydrochloride]: 168 to 171 °C; `CCN1CCN(c2nc(-c3ccc(OCC(C)(C)O)cc3)cc3ccccc23)CC1` (as salt: hydrochloride) [Example 309, 1-(1-ethylpiperazin-4-yl)-3-[4-(2-hydroxy-2-methylpropoxy)phenyl]isoquinoline dihydrochloride]: 129 to 134 °C. With `CCC(O)c1ccc(-c2cc3sccc3c(N3CCN(CC)CC3)n2)cc1` (stereo not shown) (as salt: oxalate) [Example 282, 4-(4-ethylpiperazin-1-yl)-6-[4-(1-hydroxypropyl)phenyl]thieno-[3,2-c]pyridine oxalate] the figure was 130 to 131 °C; with `CCN1CCN(c2nc(-c3ccc(OCCO)cc3)cc3cccnc23)CC1` (as salt: hydrochloride) [Example 245, 8-(1-ethylpiperazin-4-yl)-6-[4-(2-hydroxyethoxy)phenyl]-1,7-naphthyridine Dihydrochloride], 137 to 143 °C. Next, `CCN1CCN(c2nc(C#Cc3ccc(OC)cc3)cc3ccccc23)CC1` (as salt: hydrochloride) [Example 178, 1-(1-Ethylpiperazin-4-Yl)-3-(4-Methoxyphenyl)Ethynylisoquinoline Dihydrochloride]: 230 °C (dec.). On to `CCN1CCN(c2nc(-c3ccc(OC)c(CCCCO)c3)cc3ccccc23)CC1` (as salt: hydrochloride) [Example 35, 3-[3-(4-hydroxybutyl)-4-methoxyphenyl]-1-(4-ethylpiperazin-1-yl)isoquinoline hydrochloride], for which the melting point was in the range of 128 to 132 °C.

The compound `CCN1CCN(c2nc(-c3ccc(OC)cc3)cc3cccc(OC)c23)CC1` (as salt: hydrochloride) gave a melting point of 237 to 241 °C.

Compound `CCN1CCN(c2nc(-c3ccc(C(C)(C)CCO)cc3)cc3ccsc23)CC1` (as salt: hydrochloride) [Example 443, 7-(4-ethylpiperazin-1-yl)-5-[4-(3-hydroxy-1,1-dimethylpropyl)phenyl]thieno[2,3-c]pyridine dihydrochloride] registered a melting point of 125.5 to 127.5 °C.

`CCN1CCN(c2nc(-c3ccc(CCC(C)O)cc3)cc3sccc23)CC1` (stereo not shown) (as salt: hydrochloride) [Example 285, 4-(1-ethylpiperazin-4-yl)-6-[4-(3-hydroxybutyl)phenyl]thieno[3,2-c]pyridine hydrochloride] showed a melting point of 122 to 124 °C. Consider `CCN1CCN(c2nc(/C=C/c3cncc(N4CCOCC4)n3)cc3ccccc23)CC1` (as salt: oxalate) [Example 216, 3-{(E)-2-[2-(4-morpholinyl)pyrazin-6-yl]ethenyl}-1-(4-ethylpiperazin-1-yl)isoquinoline oxalate], for which the melting point is 173 to 175 °C. On to `CCN1CCN(c2nc(-c3ccc(S(=O)(=O)NCCOC)cc3)cc3ccccc23)CC1` (as salt: hydrochloride) [Example 354, 1-(4-ethylpiperazin-1-yl)-3-{4-[N-(2-methoxyethyl)sulfamoyl]phenyl}isoquinoline dihydrochloride], for which the melting point was 222 to 224 °C (dec.). Next, `CCN1CCN(c2nc(-c3ccc(OCCO)cn3)cc3ccccc23)CC1` (as salt: hydrochloride) [Example 124, 1-(1-Ethylpiperazin-4-yl)-3-[5-(2-Hydroxyethoxy)Pyridin-2-yl]Isoquinoline]: 110 to 115 °C. `CCC(O)c1ccc(-c2cc3ccccc3c(N3CCN(CC)CC3)n2)cc1` (stereo not shown) (as salt: hydrochloride) [Example 19, 1-(4-ethylpiperazin-1-yl)-3-[4-(1-hydroxypropyl)phenyl]isoquinoline hydrochloride] yielded a melting point of 143 to 144 °C. In the case of `CCN1CCN(c2nc(-c3ccc(C(O)(c4nccs4)c4nccs4)cc3)cc3ccccc23)CC1` (as salt: hydrochloride) [Example 411, 1-(4-ethylpiperazin-1-yl)-3-{4-[bis(1,3-thiazol-2-yl)hydroxymethyl]phenyl}isoquinoline], the melting point lay within 157 to 158 °C. Next, `CCC(=O)NCc1ccc(-c2cc3ccccc3c(N3CCN(CC)CC3)n2)cc1` (as salt: hydrochloride) [Example 85, 3-(4-Ethylcarbonylaminomethylphenyl)-1-(4-ethylpiperazin-1-yl)isoquinoline Hydrochloride]: 171 to 174 °C; `CCN1CCN(c2nc(-c3ccc(C4(CCO)CCOCC4)cc3)cc3ccccc23)CC1` (as salt: hydrochloride): 138 to 139 °C. With `CCN1CCN(c2nc(-c3ccc(OC)cc3)cc3cccc(C)c23)CC1` (as salt: hydrochloride) the figure was 248 to 253 °C; with `CCN1CCN(c2nc(-c3ccc(CC(C)=O)cc3)cc3ccccc23)CC1` (as salt: hydrochloride) [Example 375, 1-(4-ethylpiperazin-1-yl)-3-[4-(2-oxopropyl)phenyl]isoquinoline dihydrochloride], 125 to 126 °C; with `CCN1CCN(c2nc(-c3ccccn3)cc3ccccc23)CC1` (as salt: hydrochloride) [Example 123, 1-(4-Ethylpiperazin-1-yl)-3-(2-Pyridyl)Isoquinoline Dihydrochloride], 160 to 162 °C. Next, `CCN1CCN(c2nc(-c3ccc(OCCO)c(C#N)c3)cc3ccccc23)CC1` (as salt: hydrochloride) [Example 417, 1-(4-ethylpiperazin-1-yl)-3-[3-cyano-4-(2-hydroxyethoxy)phenyl]isoquinoline]: 162 to 164 °C. Regarding `CCN1CCN(c2nc(-c3ccnc(OCCOC)c3)cc3ccccc23)CC1` (as salt: hydrochloride) [Example 407, 1-(4-ethylpiperazin-1-yl)-3-[2-(2-methoxyethoxy)pyridin-4-yl]isoquinoline], the melting point lay in the range of 139 to 140 °C.
